Measurements taken from the NIST ThermoML archive (doi:10.1021/je5010214).
Numbers after ± are expanded uncertainties.

Settings: Liquid, Vibrating tube method

CCCCCCC [heptane]
Settings | mass density [kg/m3]
293.15 K, 5011 kPa | 688.859 ± 0.82
293.15 K, 9042.1 kPa | 692.394 ± 0.83
293.15 K, 10036 kPa | 693.252 ± 0.84
293.15 K, 11946 kPa | 694.459 ± 0.84
293.15 K, 14941 kPa | 697.266 ± 0.85
293.15 K, 21987 kPa | 701.769 ± 0.88
293.15 K, 27986 kPa | 706.659 ± 0.91
293.15 K, 33150 kPa | 710.401 ± 0.93
293.15 K, 33151 kPa | 710.425 ± 0.93
293.15 K, 34099 kPa | 710.557 ± 0.93
293.15 K, 35000 kPa | 711.53 ± 0.94
293.15 K, 40081 kPa | 714.898 ± 0.96
293.15 K, 42099 kPa | 716.347 ± 0.97
293.15 K, 45068 kPa | 718.234 ± 0.99
293.15 K, 54966 kPa | 724.479 ± 1
293.15 K, 58072 kPa | 726.215 ± 1.1
293.15 K, 66045 kPa | 730.5 ± 1.1
293.16 K, 305.2 kPa | 684.504 ± 0.81
293.16 K, 476.4 kPa | 684.708 ± 0.81
293.16 K, 1045.2 kPa | 685.167 ± 0.81
293.16 K, 7096.8 kPa | 690.796 ± 0.83
293.16 K, 17889 kPa | 698.789 ± 0.86
293.16 K, 19992 kPa | 701.345 ± 0.87
293.16 K, 24983 kPa | 704.2 ± 0.89
293.16 K, 29976 kPa | 708.599 ± 0.91
293.16 K, 32232 kPa | 710.098 ± 0.92
293.16 K, 38026 kPa | 712.948 ± 0.95
293.16 K, 48022 kPa | 720.258 ± 1
293.16 K, 50084 kPa | 721.322 ± 1
293.16 K, 52032 kPa | 722.789 ± 1
293.16 K, 60018 kPa | 727.31 ± 1.1
293.16 K, 61962 kPa | 728.261 ± 1.1
293.16 K, 64991 kPa | 729.973 ± 1.1
298.15 K, 102.3 kPa | 679.807 ± 0.81
298.15 K, 305.4 kPa | 680.336 ± 0.81
298.15 K, 854.5 kPa | 680.896 ± 0.81
298.15 K, 1980.9 kPa | 681.933 ± 0.82
298.15 K, 3167.8 kPa | 682.97 ± 0.82
298.15 K, 5067.6 kPa | 684.841 ± 0.82
298.15 K, 7065.3 kPa | 686.383 ± 0.83
298.15 K, 10107 kPa | 689.119 ± 0.84
298.15 K, 20128 kPa | 696.696 ± 0.87
298.15 K, 22004 kPa | 699.062 ± 0.88
298.15 K, 25080 kPa | 701.29 ± 0.89
298.15 K, 33113 kPa | 707.026 ± 0.93
298.15 K, 33924 kPa | 706.971 ± 0.94
298.15 K, 38097 kPa | 709.948 ± 0.96
298.15 K, 40161 kPa | 711.975 ± 0.96
298.15 K, 42028 kPa | 713.324 ± 0.97
298.15 K, 45021 kPa | 715.087 ± 0.99
298.15 K, 48107 kPa | 717.001 ± 1
298.15 K, 50068 kPa | 718.317 ± 1
298.15 K, 55016 kPa | 721.123 ± 1
298.15 K, 57931 kPa | 723.027 ± 1.1
298.15 K, 59914 kPa | 724.031 ± 1.1
298.15 K, 62036 kPa | 725.393 ± 1.1
298.15 K, 65018 kPa | 726.954 ± 1.1
298.16 K, 493.7 kPa | 680.581 ± 0.81
298.16 K, 1012.6 kPa | 680.891 ± 0.81
298.16 K, 9120.9 kPa | 688.48 ± 0.83
298.16 K, 11970 kPa | 689.977 ± 0.84
298.16 K, 15220 kPa | 693.294 ± 0.86
298.16 K, 17984 kPa | 694.869 ± 0.87
298.16 K, 28040 kPa | 703.578 ± 0.91
298.16 K, 30089 kPa | 704.725 ± 0.92
298.16 K, 32034 kPa | 706.093 ± 0.93
298.16 K, 33093 kPa | 706.936 ± 0.93
298.16 K, 35217 kPa | 707.884 ± 0.94
298.16 K, 52020 kPa | 719.461 ± 1
298.16 K, 66118 kPa | 727.501 ± 1.1
303.15 K, 100.7 kPa | 675.559 ± 0.81
303.15 K, 304.1 kPa | 675.598 ± 0.81
303.15 K, 498.9 kPa | 675.77 ± 0.81
303.15 K, 900.6 kPa | 675.904 ± 0.81
303.15 K, 979.1 kPa | 676.053 ± 0.81
303.15 K, 1977.6 kPa | 677.27 ± 0.82
303.15 K, 4930.4 kPa | 680.06 ± 0.82
303.15 K, 11975 kPa | 686.61 ± 0.84
303.15 K, 15044 kPa | 689.15 ± 0.86
